Experimental findings from ChEMBL document CHEMBL5321257, “Development of VER-50589 analogs as novel Hsp90 inhibitors” (Bioorg Med Chem Lett, 2023) are described below.

A word on the pIC50: it is the negative decadic logarithm of the IC50, by convention in mol/L. What is called IC50 is the point on the concentration scale where inhibition reaches its midpoint.

pIC50: −log10 of the molar value. Where “and” joins values, the source holds several entries; their conditions need not be identical. Equal entries are not always repeated. Calls of active or inactive are those of the source. The calls are words filed in the database; no cut-off is given here.

For assay [1], the system named is A549. Briefly: Induction of apoptosis in human A549 cells assessed as viable cells at 50 nM incubated for 48 hrs by annexin V-FITC/7-AAD staining based flow cytometry (reference value: 96.1 %). It counts as functional. The following applies: read-out: Activity. (A flow cytometer gives signals particle by particle.)
Assay [2] concerns A549. Briefly: Induction of cell cycle arrest in human A549 cells assessed as accumulation at S phase at 50 nM incubated for 48 hrs by flow cytometry (reference value: 35.77 %). It counts as functional.
Assay [3] concerns A549. Kind of assay: Induction of apoptosis in human A549 cells assessed as necrotic cells at 200 nM incubated for 48 hrs by annexin V-FITC/7-AAD staining based flow cytometry (reference value: 0.92 %). It is filed as functional.
In assay [4] the test system is A549. Briefly: Induction of cell cycle arrest in human A549 cells assessed as accumulation at G2 phase at 200 nM incubated for 48 hrs by flow cytometry (reference value: 2.53 %). It counts as functional.
Assay [5] deals with A549. Kind of assay: Induction of apoptosis in human A549 cells assessed as early apoptotic cells at 200 nM incubated for 48 hrs by annexin V-FITC/7-AAD staining based flow cytometry (reference value: 0.32 %). It is filed as functional.
In assay [6] the test system is A549. Kind of assay: Induction of cell cycle arrest in human A549 cells assessed as accumulation at S phase at 200 nM incubated for 48 hrs by flow cytometry (reference value: 35.77 %). It counts as functional.
Assay [7] has as its system A549. Briefly: Induction of apoptosis in human A549 cells assessed as early apoptotic cells at 50 nM incubated for 48 hrs by annexin V-FITC/7-AAD staining based flow cytometry (reference value: 0.32 %). It is filed as functional.
Assay [8] deals with A549. Briefly: Induction of apoptosis in human A549 cells assessed as late apoptotic cells at 50 nM incubated for 48 hrs by annexin V-FITC/7-AAD staining based flow cytometry (reference value: 0.64 %). It is filed as functional.
The test system of assay [9] is A549. Briefly: Induction of cell cycle arrest in human A549 cells assessed as accumulation at G2/G1 phase at 200 nM incubated for 48 hrs by flow cytometry (reference value: 2 %). It is filed as functional.
The test system of assay [10] is A549. Briefly: Induction of cell cycle arrest in human A549 cells assessed as accumulation at G2/G1 phase at 50 nM incubated for 48 hrs by flow cytometry (reference value: 2 %). It is filed as functional.
For assay [11], the system named is A549. Briefly: Induction of cell cycle arrest in human A549 cells assessed as accumulation at G1 phase at 200 nM incubated for 48 hrs by flow cytometry (reference value: 61.70 %). It counts as functional.
The subject of assay [12] is A549. Kind of assay: Induction of cell cycle arrest in human A549 cells assessed as accumulation at G1 phase at 50 nM incubated for 48 hrs by flow cytometry (reference value: 61.70 %). It counts as functional.
Assay [13] has as its system A549. Kind of assay: Induction of apoptosis in human A549 cells assessed as necrotic cells at 50 nM incubated for 48 hrs by annexin V-FITC/7-AAD staining based flow cytometry (reference value: 0.92 %). It counts as functional.
In assay [14] the test system is A549. Kind of assay: Induction of apoptosis in human A549 cells assessed as viable cells at 200 nM incubated for 48 hrs by annexin V-FITC/7-AAD staining based flow cytometry (reference value: 96.1 %). It counts as functional. The settings on record: read-out: Activity.
Assay [15] has as its system A549. Briefly: Induction of cell cycle arrest in human A549 cells assessed as accumulation at G2 phase at 50 nM incubated for 48 hrs by flow cytometry (reference value: 2.53 %). It counts as functional.
The test system of assay [16] is A549. Briefly: Induction of apoptosis in human A549 cells assessed as late apoptotic cells at 200 nM incubated for 48 hrs by annexin V-FITC/7-AAD staining based flow cytometry (reference value: 0.64 %). It counts as functional.
Assay [17] deals with A549. Briefly: Cytotoxicity against human A549 cells by MTT assay. It counts as functional, cell-based.
A further assay deals with MDA-MB-231. Kind of assay: Cytotoxicity against human MDA-MB-231 cells by MTT assay. It counts as functional, cell-based. (In general: Tetrazolium assays rely on reduction of a dye to a coloured formazan, in cell work by metabolically active cells.)
Assay [18] has as its target T1, Heat shock protein HSP90 (Homo sapiens, UniProt P07900+P08238). Kind of assay: Inhibition of Hsp90 in human A549 cells assessed as downregulation of CDK4 level by Western blot analysis. The following applies: dose 25-100 nM. It counts as cell-based. Background: Immunoblotting shows a protein as a band on a membrane.
The subject of assay [19] is A549. Kind of assay: Induction of cell cycle arrest in human A549 cells assessed as accumulation at G2/G1 phase at 10 nM incubated for 48 hrs by flow cytometry (reference value: 2 %). It counts as functional.
Assay [20] has as its system A549. Briefly: Induction of apoptosis in human A549 cells assessed as late apoptotic cells at 10 nM incubated for 48 hrs by annexin V-FITC/7-AAD staining based flow cytometry (reference value: 0.64 %). It counts as functional.
The test system of assay [21] is A549. Kind of assay: Induction of apoptosis in human A549 cells assessed as early apoptotic cells at 10 nM incubated for 48 hrs by annexin V-FITC/7-AAD staining based flow cytometry (reference value: 0.32 %). It is filed as functional.
The test system of assay [22] is A549. Briefly: Induction of cell cycle arrest in human A549 cells assessed as accumulation at G1 phase at 10 nM incubated for 48 hrs by flow cytometry (reference value: 61.70 %). It counts as functional.
In assay [23] the test system is A549. Briefly: Anti-migration activity in human A549 cells at 0.3 to 3 nM incubated for 48 hrs by scratch wound healing assay. It counts as functional, cell-based. The settings on record: dose 0.3-3 nM.
In assay [24] the target is T1, Heat shock protein HSP90. Briefly: Inhibition of Hsp90 in human A549 cells assessed as downregulation of HER2 level by Western blot analysis. It is filed as cell-based. The following applies: dose 25-100 nM.
In assay [25] the test system is A549. Briefly: Induction of cell cycle arrest in human A549 cells assessed as accumulation at S phase at 10 nM incubated for 48 hrs by flow cytometry (reference value: 35.77 %). It is filed as functional.
The nature of assay [26]: Cytotoxicity against human 95-D cells by MTT assay. It counts as functional, cell-based.
Assay [27] deals with A549. Kind of assay: Induction of apoptosis in human A549 cells assessed as necrotic cells at 10 nM incubated for 48 hrs by annexin V-FITC/7-AAD staining based flow cytometry (reference value: 0.92 %). It counts as functional.
For assay [28], the system named is A549. Briefly: Induction of apoptosis in human A549 cells assessed as viable cells at 10 nM incubated for 48 hrs by annexin V-FITC/7-AAD staining based flow cytometry (reference value: 96.1 %). It is filed as functional. The following applies: read-out: Activity.
Assay [29] concerns the target T1, Heat shock protein HSP90. Kind of assay: Inhibition of Hsp90 in human A549 cells assessed as upregulation of Hsp70 level at 25 to 100 nM by Western blot analysis. It counts as cell-based. The following applies: dose 25-100 nM.
Assay [30] concerns A549. Kind of assay: Inhibition of colony formation in human A549 cells. It is filed as functional, cell-based. The following applies: dose 10-20 nM.
The test system of a further assay is HeLa. Briefly: Cytotoxicity against human HeLa cells by MTT assay. It counts as functional, cell-based.
For assay [31], the target named is T1, Heat shock protein HSP90. Kind of assay: Inhibition of Hsp90 (unknown origin). It counts as protein assay.
Another assay relates to MCF7. Briefly: Cytotoxicity against human MCF7 cells by MTT assay. It counts as functional, cell-based.
The test system of assay [32] is A549. Briefly: Induction of cell cycle arrest in human A549 cells assessed as accumulation at G2 phase at 10 nM incubated for 48 hrs by flow cytometry (reference value: 2.53 %). It counts as functional.
The next assay deals with ES-2. Kind of assay: Cytotoxicity against human ES2 cells by MTT assay. It counts as functional, cell-based.

For `COC1=C2C[C@@H](C)C[C@H](OC)[C@H](O)[C@@H](C)/C=C(\C)[C@H](OC(N)=O)[C@@H](OC)/C=C\C=C(/C)C(=O)NC(=CC1=O)C2=O` [GELDANAMYCIN], the viability at 0.05 µM in the assay on A549 [1] is 93.3%. Further, the Activity in the assay with A549 [2] came out at 35.64%; in the assay with A549 [3], 2.38%; with A549 [4], 9.03%; in the assay with A549 [5], 3.26%; in the assay on A549 [6], 22%; in the assay on A549 [7] it was 1.78%. The Activity was 2.58% in the assay on A549 [8]; 2% in the assay with A549 [9]; 2% in the assay on A549 [10]; 68.97% with A549 [11]; 60.64% with A549 [12]; 2.31% in the assay on A549 [13]. Also, the Activity is recorded as 3.72% with A549 [15] and 3.77% with A549 [16]. Also, the viability at 0.2 µM with A549 [14] turned out to be 90.6%.

Consider `CCNC(=O)c1noc(-c2cc(C(C)C)c(O)cc2O)c1-c1ccc(S(C)(=O)=O)cc1`, for which the viability at 0.05 µM with A549 [1] was determined as 93%. The Activity with A549 [2] was 15.68%; with A549 [19], 2%; in the assay on A549 [20], 1.15%; in the assay with A549 [3], 2.94%; in the assay on A549 [4] it was 14.76%; in the assay with A549 [5] it was 5.98%. Besides, the Activity is 6.98% in the assay on A549 [6]; 2.74% in the assay with A549 [21]; 55.38% in the assay on A549 [22]; 1.7% in the assay with A549 [7]; 3.1% in the assay on A549 [8]; 2% with A549 [9]. Besides, the Activity with A549 [10] is reported as 2%; in the assay with A549 [11], 78.26%; in the assay with A549 [25], 41.43%; in the assay on A549 [27], 0.59%; with A549 [12], 70.94%; in the assay with A549 [13], 2.24%. Besides, the Activity in the assay on A549 [15] is 13.38%; in the assay on A549 [32], 3.19%; in the assay on A549 [16] (48 h, 0.2 µM) it was 2.74% and 8.59%. Also, the pIC50 with A549 [17] is 8.06; in the assay on MDA-MB-231, 8.55; in assay [26], 8.77; in the assay with HeLa it was 8.70; in the assay with MCF7, 8.87; in the assay with ES-2, 8.07. For the same molecule, the inhibition result on Heat shock protein HSP90 [18], at Heat shock protein HSP90 [24] and in the assay with A549 [30] was “Dose-Dependent Effect” in each case. In addition, the result in the assay on A549 [23] was Active. Further, in the assay with A549 [28], the viability at 0.01 µM is 95.5%. The inhibition result on Heat shock protein HSP90 [29] is “Active”. The viability at 0.2 µM in the assay on A549 [14] came to 82.5%. Also, the IC50 against Heat shock protein HSP90 [31] turned out to be 9 nM.

Turning to `CCNC(=O)c1noc(-c2cc(Cl)c(O)cc2O)c1-c1ccc(OC)cc1`, the negative-log IC50 (pIC50) with A549 [17] is 6.65; with MDA-MB-231, 7.12; in the assay on HeLa, 6.66; with MCF7 it was 7.16; in the assay on ES-2, 7.30.

In the case of `CCNC(=O)c1noc(-c2cc(C(C)C)c(O)cc2O)c1-c1ccc([N+](=O)[O-])cc1`, the pIC50 in the assay on A549 [17] was 7.79; in the assay on MDA-MB-231 it was 8.28; in [26], 8.54; with HeLa, 7.72; in the assay on MCF7, 8.54; with ES-2, 7.91. Also, the half-inhibitory concentration (IC50) against Heat shock protein HSP90 [31] was determined as 15 nM.

Consider `CCNC(=O)c1noc(-c2cc(C(C)C)c(O)cc2O)c1-c1ccc(P(C)(C)=O)cc1`, for which the pIC50 was 6.14 in the assay on A549 [17]; 6.67 in the assay on MDA-MB-231; 6.17 in assay [26]; 6.68 in the assay with HeLa; 6.64 with MCF7; 6.81 in the assay on ES-2. The molecule further gave a half-maximal inhibitory concentration (IC50) against Heat shock protein HSP90 [31] of 171 nM.
